Some test systems named below: DU-145 prostate; M14 melanoma; MCF7 breast; OVCAR-8 ovarian; RXF 393 renal; SF-295 CNS; SF-539 CNS; SW-620 colon; U251 CNS; HL-60(TB) leukemia.
Holding throughout (test): inhibition of tumour cell growth, NCI panel, 48 h

The results in this text go back to PubChem BioAssay (NCI).

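Values below derive from 48-hour exposures of cells grown in 96-well plates, with endpoints linearly interpolated between the two concentrations bracketing the appropriate inhibition level. At the TGI there is no net growth.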

Regarding `O=C(c1ccccc1)N1C(=S)N(c2ccc([N+](=O)[O-])cc2)C(=Nc2ccccc2)C1=Nc1ccccc1`, the TGI in the test with DU-145 prostate, in the test on M14 melanoma, with MCF7 breast, in the test with OVCAR-8 ovarian, in the test on RXF 393 renal and with SF-295 CNS was more than 100 µM each time. The TGI with SF-539 CNS, in the test with SW-620 colon and with U251 CNS was more than 100 µM in each case.
With `Cc1nnc2sc(N/N=C/c3ccccc3)nn12`, the TGI with DU-145 prostate, in the test with M14 melanoma, in the test on MCF7 breast, in the test with OVCAR-8 ovarian, with RXF 393 renal and with SF-295 CNS was more than 100 µM throughout. For the same compound, the TGI in the test with SF-539 CNS, in the test on SW-620 colon and in the test on U251 CNS was more than 100 µM each time.
With `CCCCCCCCC/C=C1\CC(CO)(COC(=O)c2ccccc2)OC1=O` (stereo unspecified), the TGI with DU-145 prostate is more than 100 µM; in the test with M14 melanoma it was 36.6 µM; in the test with MCF7 breast, 48.9 µM; with RXF 393 renal, 47.4 µM; in the test with SF-295 CNS, 39 µM; in the test on SW-620 colon it was 34.2 µM. In the test with U251 CNS, this compound gave a TGI of 39.5 µM.
As for `O=C1/C(=C/c2ccco2)NC(=S)N1CN1CCOCC1`, the TGI in the test on DU-145 prostate, in the test on M14 melanoma, in the test with MCF7 breast, in the test on OVCAR-8 ovarian, in the test with SF-295 CNS and with SW-620 colon was more than 100 µM each time. For the same compound, the TGI in the test on U251 CNS is more than 100 µM.
For `Cc1n(CC(=O)c2ccccc2)nc2sc(N)n[n+]12`, the TGI in the test on DU-145 prostate, in the test with M14 melanoma, in the test on MCF7 breast, in the test with OVCAR-8 ovarian, in the test on RXF 393 renal and in the test on SF-295 CNS was more than 100 µM each time. Further, the TGI in the test on SF-539 CNS, in the test with SW-620 colon and in the test on U251 CNS was more than 100 µM each time.
As to `O=C1C[C@H](c2ccccc2)C2(C(=O)c3ccccc3C2=O)[C@H](c2ccccc2)C1`, the TGI in the test on DU-145 prostate was more than 100 µM; in the test with HL-60(TB) leukemia it was more than 100 µM; with M14 melanoma, more than 100 µM; in the test on OVCAR-8 ovarian, more than 100 µM; in the test with RXF 393 renal, 50.5 µM; in the test with SF-295 CNS it was more than 100 µM. The TGI with U251 CNS was more than 100 µM.
As for `Clc1ncnc2c1ncn2CCCCCCCCCCCCn1cnc2c(Cl)ncnc21`, the TGI in the test with HL-60(TB) leukemia was 19.1 µM; with M14 melanoma, 29.6 µM; in the test with OVCAR-8 ovarian, 23.8 µM; in the test on RXF 393 renal it was 32.2 µM; in the test on SF-295 CNS it was 28.8 µM; in the test with SF-539 CNS, 27.8 µM. In addition, the TGI stood at 60.8 µM in the test with SW-620 colon and 23.7 µM in the test on U251 CNS.
On to `CC(=O)NC1=C(NCc2ccc(Cl)cc2)C(=O)c2ccccc2C1=O`, for which the TGI in the test with HL-60(TB) leukemia turned out to be 3.22 µM; in the test with M14 melanoma it was 13.5 µM; in the test with OVCAR-8 ovarian, 14.1 µM; with RXF 393 renal, 10.5 µM; in the test on SF-295 CNS it was 47 µM; in the test with SF-539 CNS, 10.5 µM. For the same compound, the values for the TGI with SW-620 colon and with U251 CNS were 13.6 µM and 24.2 µM, respectively.
For `C/C(N=Nc1nc2ccccc2o1)=C1/C=CC=CN1O`, the TGI was more than 100 µM in the test on DU-145 prostate; more than 100 µM in the test on M14 melanoma; 81.2 µM in the test with MCF7 breast; more than 100 µM in the test on OVCAR-8 ovarian; more than 100 µM in the test with RXF 393 renal; 10.1 µM in the test with SF-295 CNS. Moreover, the TGI in the test with SF-539 CNS was 62 µM; in the test on SW-620 colon, more than 100 µM; in the test with U251 CNS it was more than 100 µM.
For the compound `CC(C)(NC1=NCCO1)c1ccccc1`, the TGI in the test on DU-145 prostate, with M14 melanoma, in the test on MCF7 breast, with OVCAR-8 ovarian, with RXF 393 renal and in the test on SF-295 CNS was more than 100 µM each time. For the same compound, the TGI in the test with SF-539 CNS, in the test on SW-620 colon and in the test with U251 CNS was more than 100 µM in each case.
Consider `CC(=O)Nc1ccc(-c2nnc(SCC(=O)Nc3ccccc3C)o2)cc1`, for which the TGI in the test on HL-60(TB) leukemia, with M14 melanoma, with OVCAR-8 ovarian, in the test on RXF 393 renal, in the test with SF-295 CNS and with SF-539 CNS was more than 100 µM throughout. Further, the TGI in the test on SW-620 colon and in the test on U251 CNS was more than 100 µM throughout.
With `COc1nc2[nH]ccc2c(=O)n1C`, the TGI in the test on HL-60(TB) leukemia, with M14 melanoma, in the test with OVCAR-8 ovarian, in the test on RXF 393 renal, in the test on SF-295 CNS and in the test with SF-539 CNS was more than 100 µM in each case. Also, the TGI in the test with SW-620 colon and in the test on U251 CNS was more than 100 µM throughout.
Regarding `CN1CCCCC(C(O)(c2ccccc2)c2ccccc2)C1=O` (stereo unspecified), the TGI is more than 100 µM in the test with M14 melanoma; more than 100 µM with OVCAR-8 ovarian; more than 100 µM in the test with RXF 393 renal; more than 100 µM in the test with SF-295 CNS; more than 100 µM with SF-539 CNS; 25.9 µM in the test with SW-620 colon. In the test with U251 CNS, this compound registered a TGI of more than 100 µM.
As for `NC(=O)CS(=O)CC(N)C(=O)O` (stereo unspecified), the TGI in the test on DU-145 prostate, in the test with M14 melanoma, in the test with OVCAR-8 ovarian, in the test on RXF 393 renal, in the test with SF-295 CNS and with SW-620 colon was more than 100 µM in each case. The TGI in the test with U251 CNS was more than 100 µM.
For `COc1ccc(C2c3cc4c(cc3OC(N3CCCCC3)C2C)OCO4)cc1` (stereo unspecified), the TGI in the test with DU-145 prostate, with M14 melanoma, in the test on MCF7 breast, with OVCAR-8 ovarian, in the test with SF-295 CNS and with SF-539 CNS was more than 100 µM each time. Also, the TGI in the test on SW-620 colon was more than 100 µM.
As for `O=C(O)c1ccc(Nc2nc3ccccc3nc2C(=O)O)cc1`, the TGI with DU-145 prostate, with M14 melanoma, with MCF7 breast, in the test with OVCAR-8 ovarian, in the test with SF-295 CNS and in the test with SF-539 CNS was more than 100 µM in each case. In addition, in the test with U251 CNS, the TGI is more than 100 µM.
